Data set [1] relates to bloodstream-form trypanosome T. brucei brucei 427 strain. The data set can be described thus: Trypanosoma brucei brucei high-throughput in vitro drug sensitivity assay (resazurin). In kind it is cell-based. The conditions noted are these: for IC50: Trypanosoma brucei; for Selectivity Index (L929 IC50 / T. b. brucei IC50): T. b. brucei vs L929.
The nature of data set [2]: L929 cytotoxicity evaluation (resazurin). In kind it is cell-based. The conditions noted are these: mouse, L929 mouse fibroblast cells; 72 hrs incubation; read-out: Cytotox L-929 IC50. Here is the method: For evaluation of compound effects on mammalian cells, L929 mouse fibroblast cells were used. Cells were maintained as adherent cultures in T-25 vented cap flasks in a humidified incubator at 37° C. in the presence of 5% CO2. Culture media was D-MEM supplemented with 10% fetal bovine serum and 1% penicillin/streptomycin. L929 cells were maintained below confluent levels by sub-culturing at 1:10 dilution twice weekly using 0.05% trypsin for detachment.
Sub-confluent L929 cells were trypsinized, resuspended in fresh media and 10 uL was counted using hemocytometer to determine cell concentration. Cells were diluted to 1×10^4/mL in DMEM, dispensed (100 uL) into 96-well plates using a Multidrop 384 dispenser and allowed to attach overnight. Spent media was replaced with 99.5 uL fresh D-MEM and compounds to be tested were serially diluted in DMSO and 0.5 uL added using a Biomek NX liquid handler. Plates were incubated with compounds for 72 hrs at 37° C. with 5% CO2. Resazurin (20 uL of 12.5 mg/ml stock) from Sigma-Aldrich was added to each well and plates were incubated for an additional 3-4 hrs. Assay plates were read using an EnVision plate reader at an excitation wavelength of 544 nm and emission of 590 nm. Single data points were used to generate sigmoidal dose response curves and determine IC50 values using XLfit curve fitting software from IDBS (Guildford, UK).
(In general: Alamar Blue is a resazurin reagent that responds to reducing activity.)

Setting [3] is: 72 hrs incubation, read-out: T.b. brucei IC50.
The mark [4] stands for this setting: 72 hrs incubation, read-out: T. b. brucei IC50.

Values after ≈ are worked out from the molar mass of the structure shown. Like-named read-outs stand apart in the source and are kept apart here. Where only a bound is given, the exact number is not on record here.

Results on 29 compounds are retold here after patent US20110190235A1, “BORON-CONTAINING SMALL MOLECULES AS ANTIPROTOZOAL AGENTS” (Anacor Pharmaceuticals, Inc., priority 2009, published 2011).

As to `CC(=O)Nc1ccc2c(c1)B(O)OC2(C)C` [compound 130, N-(1-Hydroxy-3,3-dimethyl-1,3-dihydro-benzo[c][1,2]oxaborol-6-yl)-acetamide], the IC50 in data set [1] (setting [3]) was over 5 µg/mL. The IC50 at 72 h in data set [2] is over 10 µg/mL.
On to `CC1(C)OB(O)c2cc(NC(=O)c3ccccc3OC(F)(F)F)ccc21` [compound 51, N-(1-Hydroxy-3,3-dimethyl-1,3-dihydro-benzo[c][1,2]oxaborol-6-yl)-2-trifluoromethoxy-benzamide], for which the IC50 in data set [1] (setting [3]) was 1.15 µg/mL. Moreover, the IC50 at 72 h in data set [2] was over 10 µg/mL.
`CC1(C)OB(O)c2cc(NC(=O)c3ccc(I)cc3Cl)ccc21` [compound 77, 2-Chloro-N-(1-hydroxy-3,3-dimethyl-1,3-dihydro-benzo[c][1,2]oxaborol-6-yl)-4-iodo-benzamide]: the IC50 in data set [1] (setting [3]) stood at 0.05 µg/mL. The IC50 at 72 h in data set [2] was over 10 µg/mL.
Regarding `CC1OB(O)c2cc(NC(=O)c3cccc(F)c3)ccc21` (stereo not drawn) [compound 10, 3-Fluoro-N-(1-hydroxy-3-methyl-1,3-dihydro-benzo[c][1,2]oxaborol-6-yl)-benzamide], in data set [1], the “Selectivity Index (L929 IC50 / T. b. brucei IC50)” value is over 207. The IC50 in data set [1] (setting [4]) is 0.13 µM; in data set [1] (setting [3]), 0.037 µg/mL. In data set [2], the IC50 at 72 h is over 10 µg/mL.
Consider `O=C(Nc1ccc2c(c1)B(O)OC2C1CCCC1)c1ccc(F)cc1` (stereo not drawn) [compound 20, N-(3-Cyclopentyl-1-hydroxy-1,3-dihydro-benzo[c][1,2]oxaborol-6-yl)-4-fluoro-benzamide], for which the values for the IC50 in data set [1] (setting [4]) and in data set [1] (setting [3]) were over 14.5 µM and over 5 µg/mL, respectively. Besides, the IC50 at 72 h in data set [2] is over 10 µg/mL.
Consider `C=C(C)c1ccc(C(=O)Nc2ccc3c(c2)B(O)OC3(C)C)c(Cl)c1` [compound 100, 2-Chloro-N-(1-hydroxy-3,3-dimethyl-1,3-dihydro-benzo[c][1,2]oxaborol-6-yl)-4-isopropenyl-benzamide], for which the IC50 in data set [1] (setting [3]) was 0.077 µg/mL. The IC50 at 72 h in data set [2] turned out to be 9.55 µg/mL (≈ 26.9 µM).
With `CCCc1ccc(C(=O)Nc2ccc3c(c2)B(O)OC3(C)C)cc1` [compound 31, N-(1-Hydroxy-3,3-dimethyl-1,3-dihydro-benzo[c][1,2]oxaborol-6-yl)-4-propyl-benzamide], the IC50 in data set [1] (setting [3]) was found to be 0.397 µg/mL. Also, the IC50 at 72 h in data set [2] is over 10 µg/mL.
For `CC(C)Cc1ccc(C(=O)Nc2ccc3c(c2)B(O)OC3(C)C)c(Cl)c1` [compound 103] the same measures were 0.184 µg/mL and over 10 µg/mL.
On to `CC1(C)OB(O)c2cc(NC(=O)c3c(C(F)(F)F)ccc(Cl)c3F)ccc21` [compound 109, 3-Chloro-2-fluoro-N-(1-hydroxy-3,3-dimethyl-1,3-dihydro-benzo[c][1,2]oxaborol-6-yl)-6-trifluoromethyl-benzamide], for which, in data set [1] (setting [3]), the IC50 was determined as 0.379 µg/mL. Further, the IC50 at 72 h in data set [2] was over 10 µg/mL.
As to `CC1(C)OB(O)c2cc(NC(=O)c3cccc(C(F)(F)F)c3)ccc21` [compound 35, N-(1-Hydroxy-3,3-dimethyl-1,3-dihydro-benzo[c][1,2]oxaborol-6-yl)-3-trifluoromethyl-benzamide], the IC50 in data set [1] (setting [3]) is 2.74 µg/mL. The IC50 at 72 h in data set [2] is over 10 µg/mL.
Take `Cc1cc(C(=O)Nc2ccc3c(c2)B(O)OC3(C)C)c(C)o1` [compound 122, 2,5-Dimethyl-furan-3-carboxylic acid (1-hydroxy-3,3-dimethyl-1,3-dihydro-benzo[c][1,2]oxaborol-6-yl)-amide]: the IC50 in data set [1] (setting [3]) was over 5 µg/mL. Besides, the IC50 at 72 h in data set [2] is over 10 µg/mL.
On to `CC1(C)OB(O)c2cc(NC(=O)c3cccc4ccccc34)ccc21` [compound 111, Naphthalene-1-carboxylic acid (1-hydroxy-3,3-dimethyl-1,3-dihydro-benzo[c][1,2]oxaborol-6-yl)-amide], for which the IC50 in data set [1] (setting [3]) amounted to 1.23 µg/mL. Also, the IC50 at 72 h in data set [2] was over 10 µg/mL.
For the compound `Cc1cc(Br)ccc1C(=O)Nc1ccc2c(c1)B(O)OC2(C)C` [compound 91], in data set [1] (setting [3]), the IC50 turned out to be 0.786 µg/mL. Further, the IC50 at 72 h in data set [2] is over 10 µg/mL.
The like results for `CC1(C)OB(O)c2cc(NC(=O)c3cc[nH]n3)ccc21` [compound 123, 1H-Pyrazole-3-carboxylic acid (1-hydroxy-3,3-dimethyl-1,3-dihydro-benzo[c][1,2]oxaborol-6-yl)-amide] were, in that order, over 5 µg/mL and over 10 µg/mL.
For `CC1(C)OB(O)c2cc(NC(=O)c3ccc(SC(F)(F)F)cc3)ccc21` [compound 54, N-(1-Hydroxy-3,3-dimethyl-1,3-dihydro-benzo[c][1,2]oxaborol-6-yl)-4-trifluoromethylsulfanyl-benzamide] the same measures were 0.571 µg/mL and over 10 µg/mL.
For `CC1(C)OB(O)c2cc(NC(=O)c3ccc(Cl)cc3)ccc21` [compound 45, 4-Chloro-N-(1-hydroxy-3,3-dimethyl-1,3-dihydro-benzo[c][1,2]oxaborol-6-yl)-benzamide] the same measures were 3.64 µg/mL and over 10 µg/mL.
For `COc1ccc(C(=O)Nc2ccc3c(c2)B(O)OC3(C)C)cc1C` [compound 95, N-(1-Hydroxy-3,3-dimethyl-1,3-dihydro-benzo[c][1,2]oxaborol-6-yl)-4-methoxy-3-methyl-benzamide], the IC50 in data set [1] (setting [3]) was determined as 0.86 µg/mL. Besides, the IC50 at 72 h in data set [2] was over 10 µg/mL.
For `CC(=O)Nc1ccc2c(c1)B(O)OC2C1CCCC1` (stereo not drawn) [compound 21, N-(3-Cyclopentyl-1-hydroxy-1,3-dihydro-benzo[c][1,2]oxaborol-6-yl)-acetamide], the values for the IC50 in data set [1] (setting [4]) and in data set [1] (setting [3]) were over 19.3 µM and over 5 µg/mL, respectively. Also, the IC50 at 72 h in data set [2] is over 10 µg/mL.
With `C=Cc1ccc(C(=O)Nc2ccc3c(c2)B(O)OC3(C)C)c(Cl)c1` [compound 97, 2-Chloro-N-(1-hydroxy-3,3-dimethyl-1,3-dihydro-benzo[c][1,2]oxaborol-6-yl)-4-vinyl-benzamide], the IC50 in data set [1] (72 h, read-out: T.b. brucei IC50 (ug/mL)) was determined as 0.05 µg/mL. Also, the IC50 at 72 h in data set [2] was over 10 µg/mL.
On to `CC1(C)OB(O)c2cc(NC(=O)c3cccc(Cl)c3Cl)ccc21` [compound 66, 2,3-Dichloro-N-(1-hydroxy-3,3-dimethyl-1,3-dihydro-benzo[c][1,2]oxaborol-6-yl)-benzamide], for which, in data set [1] (setting [3]), the IC50 came to 0.292 µg/mL. Also, the IC50 at 72 h in data set [2] was over 10 µg/mL.
In the case of `CC1(C)OB(O)c2cc(NC(=O)c3c(F)cccc3F)ccc21` [compound 64, 2,6-Difluoro-N-(1-hydroxy-3,3-dimethyl-1,3-dihydro-benzo[c][1,2]oxaborol-6-yl)-benzamide], the IC50 in data set [1] (setting [3]) stood at 0.724 µg/mL. In data set [2], the IC50 at 72 h was over 10 µg/mL.
As for `CC1(C)OB(O)c2cc(NC(=O)C3CC3)ccc21` [compound 126, Cyclopropanecarboxylic acid (1-hydroxy-3,3-dimethyl-1,3-dihydro-benzo[c][1,2]oxaborol-6-yl)-amide], the IC50 in data set [1] (setting [3]) is over 5 µg/mL. For the same compound, the IC50 at 72 h in data set [2] is over 10 µg/mL.
As to `CCCCc1ccc(C(=O)Nc2ccc3c(c2)B(O)OC3(C)C)cc1` [compound 32, 4-Butyl-N-(1-hydroxy-3,3-dimethyl-1,3-dihydro-benzo[c][1,2]oxaborol-6-yl)-benzamide], the IC50 in data set [1] (setting [3]) turned out to be 0.349 µg/mL. Moreover, in data set [2], the IC50 at 72 h is over 10 µg/mL.
The like results for `CC1(C)OB(O)c2cc(NC(=O)c3ccc4ccccc4n3)ccc21` [compound 117, Quinoline-2-carboxylic acid (1-hydroxy-3,3-dimethyl-1,3-dihydro-benzo[c][1,2]oxaborol-6-yl)-amide] were, in that order, 1.55 µg/mL and over 10 µg/mL.
Take `O=C(Nc1ccc2c(c1)B(O)OC21CCCC1)c1ccccc1Cl` [compound 137, 2-Chloro-N-(1-hydroxy-3,3-spirocyclopentyl′-1,3-dihydro-benzo[c][1,2]oxaborol-6-yl)-benzamide]: the “Selectivity Index (L929 IC50 / T. b. brucei IC50)” value in data set [1] was over 3. Besides, the IC50 in data set [1] (setting [4]) worked out at 10.6 µM; in data set [1] (setting [3]), 3.62 µg/mL. In addition, in data set [2], the IC50 at 72 h was over 10 µg/mL.
For the compound `CC1(C)OB(O)c2cc(NC(=O)c3cccc(Br)c3)ccc21` [compound 43, 3-Bromo-N-(1-hydroxy-3,3-dimethyl-1,3-dihydro-benzo[c][1,2]oxaborol-6-yl)-benzamide], the IC50 in data set [1] (setting [3]) was determined as 2.2 µg/mL. Also, the IC50 at 72 h in data set [2] was over 10 µg/mL.
As for `CC1OB(O)c2cc(NC(=O)c3ccc(F)cc3Br)ccc21` (stereo not drawn) [compound 16, 2-Bromo-4-fluoro-N-(1-hydroxy-3-methyl-1,3-dihydro-benzo[c][1,2]oxaborol-6-yl)-benzamide], the “Selectivity Index (L929 IC50 / T. b. brucei IC50)” value in data set [1] was 29. Also, the IC50 was determined as 0.294 µM in data set [1] (setting [4]) and 0.107 µg/mL in data set [1] (setting [3]). Moreover, in data set [2], the IC50 at 72 h is 3.06 µg/mL (≈ 8.41 µM).
For `CC1(C)OB(O)c2cc(NC(=O)c3ccc(N4CCOCC4)cc3)ccc21` [compound 61, N-(1-Hydroxy-3,3-dimethyl-1,3-dihydro-benzo[c][1,2]oxaborol-6-yl)-4-morpholin-4-yl-benzamide], the IC50 in data set [1] (setting [3]) was determined as 1.6 µg/mL. The IC50 at 72 h in data set [2] is over 10 µg/mL.
As to `Cc1ccc(C(=O)Nc2ccc3c(c2)B(O)OC3(C)C)c(Cl)c1` [compound 89, 2-Chloro-N-(1-hydroxy-3,3-dimethyl-1,3-dihydro-benzo[c][1,2]oxaborol-6-yl)-4-methyl-benzamide], in data set [1] (setting [3]), the IC50 was determined as 0.152 µg/mL. Further, in data set [2], the IC50 at 72 h was over 10 µg/mL.
